Source: ChEMBL document CHEMBL1201862, “PubChem BioAssay data set” (2004)
Where “and” joins values, the source holds several entries; their conditions need not be identical. Equal entries are not always repeated. Calls of active or inactive are those of the source.

What was measured:
Streptococcus = experiment: GAS UMAA2166 growth inhibition – luminescence, BacTiterGlo, counter-screen for streptokinase expression inhibitor project, dose response (AID 1915); format: functional, organism-based;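 note: potency for reduction of bacterial viability or growth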
Streptokinase A = biological target: T1, Streptokinase A (Streptococcus pyogenes serotype M1, UniProt P10520); experiment: viability-normalized secreted streptokinase activity reduction – plasminogen activation absorbance, OD405, dose response (AID 1914); format: functional, Streptococcus pyogenes M1 GAS;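 note: secreted streptokinase activity via plasminogen activation per viability signal from cell pellet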
T1 sequence (P10520 whole entry): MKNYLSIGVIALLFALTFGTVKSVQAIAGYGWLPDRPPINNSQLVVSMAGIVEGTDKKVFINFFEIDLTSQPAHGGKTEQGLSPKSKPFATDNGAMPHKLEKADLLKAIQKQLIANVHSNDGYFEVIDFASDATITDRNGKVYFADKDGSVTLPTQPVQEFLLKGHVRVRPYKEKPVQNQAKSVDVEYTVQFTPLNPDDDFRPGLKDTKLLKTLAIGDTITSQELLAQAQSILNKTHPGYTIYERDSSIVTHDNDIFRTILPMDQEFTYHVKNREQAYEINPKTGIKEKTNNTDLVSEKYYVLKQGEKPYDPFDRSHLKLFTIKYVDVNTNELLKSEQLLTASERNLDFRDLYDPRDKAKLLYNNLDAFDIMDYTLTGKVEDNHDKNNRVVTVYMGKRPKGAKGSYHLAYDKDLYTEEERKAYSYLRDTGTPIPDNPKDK

[1] = tested on: Streptococcus sp. 'group A'; experiment: Streptococcus pyogenes SK(-)GAS viability under kanamycin – luminescence, BacTiterGlo, confirmation, counter-screen for streptokinase expression inhibitor project, dose response (AID 1900); format: functional, organism-based
[2] = biological target: Voltage-dependent T-type calcium channel subunit alpha-1H (Homo sapiens, UniProt O95180); format: functional;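 note: channel activity triggered by adding a high calcium stimulation buffer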
H9c2 = experiment: cells; format: functional, cell-based; details: Rattus norvegicus, H9c2, Myocardium;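 note: confirmatory concentration-response retest of ultra-high-throughput screening hits for modulation of myocardial damage; cell death induced by hydrogen peroxide oxidative stress; compound pretreatment for 60 min then peroxide exposure for 2 h; potency is for protecting the cells against peroxide damage rather than for killing them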
[3] = biological target: Alkaline phosphatase, placental type (Homo sapiens, UniProt P05187); experiment: human placental alkaline phosphatase inhibition – biochemical, luminescence, confirmation (AID 1512); format: functional
HEK293 [4] = experiment: NOD2 signaling inhibitors in MDP-stimulated cells, cell-based, uHTS, luminescence (AID 2001); format: functional; details: Homo sapiens
[5] = biological target: T2, Nucleotide-binding oligomerization domain-containing protein 1 (Homo sapiens, UniProt Q9Y239); experiment: blockers of NOD1 pathway activity – revised, SAR follow-up (AID 2333); format: functional
T2 sequence (Q9Y239 whole entry): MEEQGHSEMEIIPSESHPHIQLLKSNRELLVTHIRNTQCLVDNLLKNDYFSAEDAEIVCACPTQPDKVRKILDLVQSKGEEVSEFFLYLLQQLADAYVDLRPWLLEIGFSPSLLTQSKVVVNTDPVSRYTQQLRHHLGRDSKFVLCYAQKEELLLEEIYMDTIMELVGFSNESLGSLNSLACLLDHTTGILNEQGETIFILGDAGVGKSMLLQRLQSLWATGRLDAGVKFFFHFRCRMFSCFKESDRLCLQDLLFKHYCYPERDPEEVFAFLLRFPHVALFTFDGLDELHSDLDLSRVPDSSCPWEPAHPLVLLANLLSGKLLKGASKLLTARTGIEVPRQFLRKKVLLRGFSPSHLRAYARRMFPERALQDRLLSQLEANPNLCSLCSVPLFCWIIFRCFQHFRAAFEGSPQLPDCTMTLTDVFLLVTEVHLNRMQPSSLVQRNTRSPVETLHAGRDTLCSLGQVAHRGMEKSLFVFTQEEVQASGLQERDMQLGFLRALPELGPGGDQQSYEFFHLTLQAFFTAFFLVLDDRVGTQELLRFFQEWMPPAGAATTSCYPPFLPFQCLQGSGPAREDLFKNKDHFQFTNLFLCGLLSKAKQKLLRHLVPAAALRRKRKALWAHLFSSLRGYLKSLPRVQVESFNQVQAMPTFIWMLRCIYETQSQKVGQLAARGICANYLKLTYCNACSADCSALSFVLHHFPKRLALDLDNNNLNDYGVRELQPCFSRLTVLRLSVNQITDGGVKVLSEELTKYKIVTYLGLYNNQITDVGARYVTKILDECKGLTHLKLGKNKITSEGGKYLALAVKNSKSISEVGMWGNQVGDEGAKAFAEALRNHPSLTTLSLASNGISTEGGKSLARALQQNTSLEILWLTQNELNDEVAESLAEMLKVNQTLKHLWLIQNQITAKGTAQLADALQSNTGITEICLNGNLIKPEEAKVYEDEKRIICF

HEK293 [6] = experiment: cells; details: Homo sapiens
HEK293 [7] = experiment: cells; format: functional, cell-based; details: Homo sapiens
Tumor necrosis factor = Tumor necrosis factor (Homo sapiens, UniProt P01375); experiment: analog potency on TNFa NF-kB signaling – cell-based, revised, SAR follow-up (AID 2337); format: functional
HEK293 [8] = experiment: cells; format: functional, cell-based; details: Homo sapiens; remark: listed apart in the source
HEK293 [9] = experiment: inhibition of NOD1-driven NF-kB reporter – cell-based, luminescence, uHTS, primary screen (AID 1578); format: functional; details: Homo sapiens
[10] = HEK-293T viability loss after treatment – luminescence, T-cell screen hits, cytotoxicity control for TCR NF-kB inhibitor project, dose response (AID 489026); format: functional, cell-based;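 note: cells exposed to compound about 14 hours before the viability readout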
[11] = biological target: Nucleotide-binding oligomerization domain-containing protein 2 (Homo sapiens, UniProt Q9HC29); experiment: inhibition of NOD2-driven NF-kB reporter – cell-based, luminescence, uHTS, HEK293 (AID 1566); format: functional
HEK293 [12] = experiment: cells; format: functional, cell-based; details: Homo sapiens; remark: listed apart in the source
cells = format: functional
[13] = THP-1 cell cytotoxicity, dose response, cytotoxicity control for non-replicating M. tuberculosis project (AID 489025); format: functional
[14] = Vero E6 cell cytotoxicity, dose response, cytotoxicity control for non-replicating M. tuberculosis project, secondary assay (AID 492998); format: functional, VeroE6; details: Vero C1008
Protein skinhead-1 = biological target: T3, Protein skinhead-1 (Caenorhabditis elegans, UniProt P34707); format: functional
T3 sequence (P34707 whole entry): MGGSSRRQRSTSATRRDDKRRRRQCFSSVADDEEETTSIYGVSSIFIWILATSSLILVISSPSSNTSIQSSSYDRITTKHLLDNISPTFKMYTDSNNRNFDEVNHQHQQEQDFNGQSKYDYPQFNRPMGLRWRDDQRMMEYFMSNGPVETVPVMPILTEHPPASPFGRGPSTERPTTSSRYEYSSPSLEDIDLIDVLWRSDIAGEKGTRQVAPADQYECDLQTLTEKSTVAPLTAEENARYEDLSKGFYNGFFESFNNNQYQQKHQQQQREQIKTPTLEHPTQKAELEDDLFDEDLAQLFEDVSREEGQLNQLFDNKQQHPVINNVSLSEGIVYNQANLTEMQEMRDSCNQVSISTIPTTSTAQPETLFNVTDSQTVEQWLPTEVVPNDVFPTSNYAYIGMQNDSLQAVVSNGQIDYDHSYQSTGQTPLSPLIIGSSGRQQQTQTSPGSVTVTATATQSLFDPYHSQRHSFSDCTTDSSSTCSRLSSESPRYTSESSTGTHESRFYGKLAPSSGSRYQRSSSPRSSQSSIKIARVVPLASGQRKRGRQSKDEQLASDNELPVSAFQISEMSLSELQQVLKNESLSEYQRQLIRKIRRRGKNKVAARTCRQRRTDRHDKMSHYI

[15] = biological target: T4, Alkaline phosphatase, tissue-nonspecific isozyme (Homo sapiens, UniProt P05186); experiment: potency against alkaline phosphatase TNAP – biochemical, luminescent, dose response, SAR follow-up (AID 1056)
T4 sequence (P05186 whole entry): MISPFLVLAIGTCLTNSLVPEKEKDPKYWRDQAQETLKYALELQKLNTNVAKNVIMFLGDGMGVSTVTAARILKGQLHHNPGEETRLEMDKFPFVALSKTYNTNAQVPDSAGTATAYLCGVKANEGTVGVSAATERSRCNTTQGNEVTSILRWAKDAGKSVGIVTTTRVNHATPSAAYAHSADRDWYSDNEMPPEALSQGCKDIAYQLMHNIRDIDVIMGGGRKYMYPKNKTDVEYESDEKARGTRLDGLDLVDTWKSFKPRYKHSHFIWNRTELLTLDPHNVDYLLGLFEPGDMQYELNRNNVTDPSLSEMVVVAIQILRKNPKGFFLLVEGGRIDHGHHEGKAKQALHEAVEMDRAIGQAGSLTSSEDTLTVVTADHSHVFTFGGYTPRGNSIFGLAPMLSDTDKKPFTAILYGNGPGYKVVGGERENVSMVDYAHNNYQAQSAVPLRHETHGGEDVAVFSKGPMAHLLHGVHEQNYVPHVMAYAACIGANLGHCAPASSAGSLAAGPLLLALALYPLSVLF

[16] = biological target: DNA dC->dU-editing enzyme APOBEC-3G (Homo sapiens, UniProt Q9HC16); experiment: Dose Response confirmation of small molecule APOBEC3G DNA Deaminase Inhibitors via a fluorescence-based single-stranded DNA deaminase assay. [Related pubchem assays (depositor defined):AID493012, AID493028]; format: functional
Caspase-6 = biological target: T5, Caspase-6 (Homo sapiens, UniProt P55212); experiment: inhibition of CASP6 peptide cleavage – biochemical, VEID-R110 fluorescence, cherry-pick, dose response (AID 720632)
T5 sequence (P55212 whole entry): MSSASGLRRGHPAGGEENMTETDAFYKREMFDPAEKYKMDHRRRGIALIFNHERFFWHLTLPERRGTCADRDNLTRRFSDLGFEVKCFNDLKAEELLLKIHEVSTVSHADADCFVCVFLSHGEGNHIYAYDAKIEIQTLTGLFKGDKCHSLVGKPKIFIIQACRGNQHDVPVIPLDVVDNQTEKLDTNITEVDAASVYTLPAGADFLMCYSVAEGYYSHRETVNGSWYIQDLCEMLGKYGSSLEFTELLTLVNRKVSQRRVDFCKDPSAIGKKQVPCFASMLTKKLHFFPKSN

Cytochrome P450 3A4 [17] = biological target: T6, Cytochrome P450 3A4 (Homo sapiens, UniProt P08684)
[18] = biological target: T4, Alkaline phosphatase, tissue-nonspecific isozyme; experiment: TNAP enzyme inhibition by screening hits, dose response, selectivity assay for mouse IAP inhibitor project, biochemical, human TNAP, uHTS hits (AID 488906); format: functional
Cytochrome P450 2C19 = Cytochrome P450 2C19 (Homo sapiens, UniProt P33261); experiment: Cytochrome panel assay with activity outcomes. Panel member name: p450-cyp2c19 Compounds with AC50 equal or less than 10 uM are considered active; format: functional; details: read-out: AC50
Cytochrome P450 3A4 [19] = biological target: T6, Cytochrome P450 3A4; details: Potency
[20] = biological target: Intestinal-type alkaline phosphatase (Mus musculus, UniProt P24822); experiment: PubChem AID 488785; format: functional
Intestinal-type alkaline phosphatase, sequence (P24822 whole entry): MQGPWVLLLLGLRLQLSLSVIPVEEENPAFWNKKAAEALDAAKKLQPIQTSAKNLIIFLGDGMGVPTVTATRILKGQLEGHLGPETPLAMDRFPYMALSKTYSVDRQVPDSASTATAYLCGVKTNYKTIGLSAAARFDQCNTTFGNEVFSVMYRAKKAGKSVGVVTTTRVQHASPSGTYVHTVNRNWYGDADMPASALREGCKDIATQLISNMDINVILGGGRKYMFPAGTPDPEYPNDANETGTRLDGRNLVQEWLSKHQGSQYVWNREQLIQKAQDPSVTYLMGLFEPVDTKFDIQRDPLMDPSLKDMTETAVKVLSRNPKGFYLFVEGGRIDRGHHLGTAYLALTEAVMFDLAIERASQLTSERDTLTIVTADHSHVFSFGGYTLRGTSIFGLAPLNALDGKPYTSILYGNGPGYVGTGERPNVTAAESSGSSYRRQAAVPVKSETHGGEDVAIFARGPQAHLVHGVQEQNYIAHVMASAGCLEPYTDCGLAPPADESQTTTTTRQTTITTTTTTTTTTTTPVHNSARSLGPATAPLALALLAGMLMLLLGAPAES

Nucleotide-binding oligomerization domain-containing protein 2, sequence (Q9HC29 whole entry, the tested form may be a part): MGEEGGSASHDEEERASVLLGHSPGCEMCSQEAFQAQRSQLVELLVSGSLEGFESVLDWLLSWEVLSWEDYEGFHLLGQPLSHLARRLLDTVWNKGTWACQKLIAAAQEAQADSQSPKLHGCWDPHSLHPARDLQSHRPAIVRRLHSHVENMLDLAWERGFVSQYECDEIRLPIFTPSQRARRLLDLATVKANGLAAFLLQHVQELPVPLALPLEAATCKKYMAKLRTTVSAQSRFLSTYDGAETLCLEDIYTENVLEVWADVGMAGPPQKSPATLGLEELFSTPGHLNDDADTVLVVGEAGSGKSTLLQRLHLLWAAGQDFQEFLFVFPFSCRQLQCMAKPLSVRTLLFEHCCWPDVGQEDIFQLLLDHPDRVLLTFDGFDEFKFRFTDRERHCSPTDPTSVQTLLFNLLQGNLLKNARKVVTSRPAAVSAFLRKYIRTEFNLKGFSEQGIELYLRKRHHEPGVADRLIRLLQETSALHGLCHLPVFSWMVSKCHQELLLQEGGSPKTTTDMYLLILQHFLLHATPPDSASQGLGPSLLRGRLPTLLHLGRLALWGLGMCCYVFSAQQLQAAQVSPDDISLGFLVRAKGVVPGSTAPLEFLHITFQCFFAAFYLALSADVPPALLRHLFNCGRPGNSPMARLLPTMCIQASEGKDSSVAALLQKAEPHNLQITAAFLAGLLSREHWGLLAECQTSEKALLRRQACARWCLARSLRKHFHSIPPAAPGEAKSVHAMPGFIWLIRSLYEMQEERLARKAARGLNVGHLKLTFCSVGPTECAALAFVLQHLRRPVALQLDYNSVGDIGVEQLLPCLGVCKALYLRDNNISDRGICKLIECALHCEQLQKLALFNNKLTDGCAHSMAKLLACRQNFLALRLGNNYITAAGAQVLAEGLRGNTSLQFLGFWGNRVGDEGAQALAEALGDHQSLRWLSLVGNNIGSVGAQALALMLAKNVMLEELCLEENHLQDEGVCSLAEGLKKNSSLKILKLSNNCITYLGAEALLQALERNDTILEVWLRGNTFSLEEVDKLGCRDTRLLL
Alkaline phosphatase, placental type, sequence (P05187 whole entry): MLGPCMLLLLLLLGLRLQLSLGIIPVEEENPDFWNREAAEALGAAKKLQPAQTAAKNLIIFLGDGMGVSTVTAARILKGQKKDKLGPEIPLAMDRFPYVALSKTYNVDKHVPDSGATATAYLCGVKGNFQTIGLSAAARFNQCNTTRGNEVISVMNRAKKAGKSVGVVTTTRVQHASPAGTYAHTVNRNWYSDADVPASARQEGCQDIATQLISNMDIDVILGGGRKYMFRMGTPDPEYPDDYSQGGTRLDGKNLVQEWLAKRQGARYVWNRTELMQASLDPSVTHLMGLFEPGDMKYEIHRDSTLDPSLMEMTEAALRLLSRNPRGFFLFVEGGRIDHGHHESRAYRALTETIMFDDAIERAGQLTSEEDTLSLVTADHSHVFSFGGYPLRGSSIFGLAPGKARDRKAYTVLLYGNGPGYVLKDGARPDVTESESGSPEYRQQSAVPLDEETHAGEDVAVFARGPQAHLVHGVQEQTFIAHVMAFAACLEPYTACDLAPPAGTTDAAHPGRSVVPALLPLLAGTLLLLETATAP
T6 sequence (P08684 whole entry): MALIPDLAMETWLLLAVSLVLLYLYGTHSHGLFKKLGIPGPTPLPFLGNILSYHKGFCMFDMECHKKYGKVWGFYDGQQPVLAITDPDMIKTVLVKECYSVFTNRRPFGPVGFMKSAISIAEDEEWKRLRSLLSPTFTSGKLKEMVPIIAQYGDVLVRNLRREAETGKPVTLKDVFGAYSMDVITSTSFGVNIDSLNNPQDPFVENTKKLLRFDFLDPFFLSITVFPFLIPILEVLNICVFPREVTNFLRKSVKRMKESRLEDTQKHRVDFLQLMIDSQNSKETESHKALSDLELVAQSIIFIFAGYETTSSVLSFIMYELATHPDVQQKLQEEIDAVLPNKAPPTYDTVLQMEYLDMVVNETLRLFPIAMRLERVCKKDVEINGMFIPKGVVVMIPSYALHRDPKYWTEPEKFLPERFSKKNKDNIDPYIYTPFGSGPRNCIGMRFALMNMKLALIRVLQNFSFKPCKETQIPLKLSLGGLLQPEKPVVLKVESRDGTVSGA
Cytochrome P450 2C19, sequence (P33261 whole entry): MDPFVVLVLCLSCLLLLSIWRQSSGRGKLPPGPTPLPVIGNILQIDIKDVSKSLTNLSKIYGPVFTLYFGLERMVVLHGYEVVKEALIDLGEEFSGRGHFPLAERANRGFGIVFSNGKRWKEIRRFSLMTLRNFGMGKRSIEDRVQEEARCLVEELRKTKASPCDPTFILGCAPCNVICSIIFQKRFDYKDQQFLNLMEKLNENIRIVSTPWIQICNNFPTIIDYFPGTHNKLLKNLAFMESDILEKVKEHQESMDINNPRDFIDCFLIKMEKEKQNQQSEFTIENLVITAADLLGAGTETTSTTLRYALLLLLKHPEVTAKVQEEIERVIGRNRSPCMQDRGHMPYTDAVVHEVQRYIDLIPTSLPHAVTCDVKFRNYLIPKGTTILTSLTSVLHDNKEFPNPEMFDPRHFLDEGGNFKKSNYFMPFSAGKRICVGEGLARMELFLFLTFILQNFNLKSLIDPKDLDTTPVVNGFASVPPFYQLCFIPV
DNA dC->dU-editing enzyme APOBEC-3G, sequence (Q9HC16 whole entry): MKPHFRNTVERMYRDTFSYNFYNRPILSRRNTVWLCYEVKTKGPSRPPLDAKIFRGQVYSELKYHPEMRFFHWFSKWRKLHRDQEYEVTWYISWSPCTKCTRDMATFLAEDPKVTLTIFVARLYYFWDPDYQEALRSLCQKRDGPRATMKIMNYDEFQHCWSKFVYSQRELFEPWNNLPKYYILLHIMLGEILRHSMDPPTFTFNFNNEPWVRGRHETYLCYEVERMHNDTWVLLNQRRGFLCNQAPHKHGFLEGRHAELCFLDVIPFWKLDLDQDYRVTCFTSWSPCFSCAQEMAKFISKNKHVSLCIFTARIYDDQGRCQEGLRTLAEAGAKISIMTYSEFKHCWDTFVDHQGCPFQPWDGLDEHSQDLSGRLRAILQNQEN
Tumor necrosis factor, sequence (P01375 whole entry): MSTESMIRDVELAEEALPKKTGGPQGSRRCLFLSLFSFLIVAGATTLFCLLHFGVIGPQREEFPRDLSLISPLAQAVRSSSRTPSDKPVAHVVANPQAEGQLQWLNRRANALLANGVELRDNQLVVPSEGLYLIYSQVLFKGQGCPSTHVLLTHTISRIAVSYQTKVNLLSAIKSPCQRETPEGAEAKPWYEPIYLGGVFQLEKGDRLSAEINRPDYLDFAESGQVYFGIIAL

SMILES | IC50 (HEK293 [4]) | IC50 (HEK293 [7]) | IC50 (HEK293 [8]) | EC50 (HEK293 [9]) | EC50 [11] | IC50 (HEK293 [12]) | other results
O=C(CCCSc1ccccc1)Nc1nc(-c2ccccn2)cs1 |  |  |  |  |  |  | EC50 (Streptococcus): 45.8 µM (active); EC50 (Streptokinase A): > 150 µM (not active); EC50 [1]: 5.14 µM (active); EC50 [2]: 4.7 µM (active); IC50 (H9c2): > 79 µM (inactive)
CCc1ccc2nc(Nc3nc(COC)cc(=O)[nH]3)nc(C)c2c1 |  |  |  |  |  |  | IC50 [3]: > 100 µM (inactive)
Cc1ccc(C(=O)N2CCN(c3ccc(F)cc3)CC2)cc1S(=O)(=O)N1CCCCC1 | 12.9 µM (inactive) | 11.2 µM (active) | > 20 µM (inactive) | 5.48 µM (active) |  |  | IC50 [5]: 5.07 µM (active); IC50 (HEK293 [6]): > 20 µM (inactive); IC50 (Tumor necrosis factor): 9.82 µM (active)
Cc1csc2ncnc(NC3CCN(Cc4ccccc4)CC3)c12 | 2.36 µM (active) | 1.61 µM (active) | > 20 µM (inactive) | 1.92 µM (active) | 7.78 µM (active) | > 20 µM (inactive) | IC50 [10]: > 80 µM (inactive)
COc1ccc(O)c(-c2[nH]ncc2C(=O)c2ccccc2)c1 | 14 µM (inactive) | 9.31 µM (active) | > 20 µM (inactive) | 15 µM (active) | 14.3 µM (active) | > 20 µM (inactive) | 
COc1ccc(CCNc2oc(COc3ccc(Br)cc3)nc2C#N)cc1OC | 5.07 µM (active) | 5.86 µM (active) | 8.84 µM (active) | 10.5 µM (active) | 12.8 µM (active) | > 20 µM (inactive) | 
O=C(Nc1nc(-c2cc(F)ccc2F)cs1)c1ccccn1 |  |  |  |  |  |  | IC50 (cells): 0.83 µM (active); CC50 [13]: 29.4 µM (active); CC50 [14]: > 20 µM (active); IC50 (Protein skinhead-1): > 100 µM (inactive)
COc1ccc(-n2c(C)c([N+](=O)[O-])c3ccc(O)c(CN4CCCCC4)c32)cc1 | 2.39 µM (active) | 2.1 µM (active) | > 20 µM (inactive) | 2.77 µM (active) | > 20 µM (inactive) | > 20 µM (inactive) | 
CCCCN1C(=O)/C(=N\Nc2ccccc2OC)c2ccccc21 |  |  |  |  |  |  | IC50 [15]: 28.7 µM (active); IC50 [3]: 87.9 µM (active)
Cc1cc(C(=O)NCCc2ccc(O)c(O)c2)c(C)o1 |  |  |  |  |  |  | IC50 [15]: > 100 µM (inactive); IC50 [3]: > 100 µM (inactive)
O=c1c(O)c(-c2cc(O)c(O)c(O)c2)oc2cc(O)cc(O)c12 [MYRICETIN] |  |  |  |  |  |  | IC50 [16]: 2.39 µM (active); AC50 (Caspase-6): 0.461 µM (active); AC50 (Cytochrome P450 3A4 [17]): 3.98 µM (inconclusive); IC50 [18]: 33.2 µM (active); AC50 (Cytochrome P450 2C19): 3.98 µM (inconclusive) and 20 µM (inconclusive); AC50 (Cytochrome P450 3A4 [19]): 25.1 µM (inconclusive); IC50 [20]: 12.5 µM (active)
